Laboratory results from US4929736A, “Latent isocynate derivatives useful for deactivating enzymes” (Board of Trustees of the Wichita State University, priority 1986, dated 1990).

Legend:
thromboxane synthetease = conditions: cited from earlier work
ICR mice = experiment: Tolerance of mice to IP or IT injection of inhibitor; format: in vivo, mouse; conditions: all treatments of Table VIII
Text: (§1) Animal models of emphysema include intratracheal administration of an elastolytic protease (PPE, HLE or papain) to cause a slowly progressive, destructive lesion in the lung. These proteases induce a lesion that is evident in the first few hours.
The method used for in vivo evaluation involved injection of a test solution into the trachea, or directly into one bronchus. In general, the method of Hayes et al J. Pathol, 117, 1-14 (1975) was used. A fine teflon tubing was connected to a pipette and inserted into the trachea after the animals were lightly anesthetized by IP injection. The contents of the pipette were then ejected. […] It was further determined that instillation of 40 ug of PPE in the same volume causes an unambigous emphysematous lesion which is restricted to the instilled lobe. After 7 to 10 days to allow inflamation to subside, the animals were sacrificed followed by exsanguination via the descending aorta. PPE was used rather than HLE to produce the lesion because emphysema developes over a much shorter period of time. Emphysema then was induced under acute condition so that the effects of the compounds tested could be investigated under the time constraints of a laboratory procedure. […]
Initially, the tolerance of 30-40 gram male ICR mice to intraperitoneal (IP) or intratracheal (IT) injection of inhibitor (Compound 5, Table I) was evaluated.

[1] = system: Elastase-induced Emphysema in the Mouse; experiment: Protection against elastase-induced emphysema in the mouse, lung histology; format: in vivo
Text: as §1
(§2) The method used for in vivo evaluation involved injection of a test solution into the trachea, or directly into one bronchus. In general, the method of Hayes et al J. Pathol, 117, 1-14 (1975) was used. A fine teflon tubing was connected to a pipette and inserted into the trachea after the animals were lightly anesthetized by IP injection. The contents of the pipette were then ejected. […] It was further determined that instillation of 40 ug of PPE in the same volume causes an unambigous emphysematous lesion which is restricted to the instilled lobe. After 7 to 10 days to allow inflamation to subside, the animals were sacrificed followed by exsanguination via the descending aorta. PPE was used rather than HLE to produce the lesion because emphysema developes over a much shorter period of time. Emphysema then was induced under acute condition so that the effects of the compounds tested could be investigated under the time constraints of a laboratory procedure. PPE with an animal model has been used in research in the past to study other, unrelated, inhibitors. (Bergeson, S. H. et al., European Patent No. 0189305 (1986).
In view of the fact that two tenths umoles of inhibitor is 100 times of the amount of the inhibitor necessary to inhibit the 40 ug of elastase in vitro, dosages were kept in the range of 1 to 10 umoles of inhibitor.
*Elastase: 20 ul containing 40 ug pancreatic elastase
As noted above, the method of in vivo testing is a modification of that of Hayes et al. However, the test solutions are inserted past the vocal chords into one bronchus by resistance. It was established initially that 20 ul of a solution of PPE (2 milligrams per milliter in saline) would create a reliable and unambigous emphysematous lesion. It should also be noted that the animals were scored for the presence of absence of such a lesion in any lobe without regard to the severity of the lesion.

[2] = system: PPE-induced emphysema in ICR mice; experiment: Simultaneous intratracheal instillation of PPE with inhibitor, emphysema induction; format: in vivo, mouse; conditions: for Emphysema: 10 days
Text: as §1, §2
Animals were also used to evaluate the effect of simultaneous intratracheal installation of PPE with the above inhibitor compound. The ICR mice in this experiment were used to evaluate the effect of the inhibitor in preventing emphysema induction. Table IX below illustrates the results of these tests:
All animals were sacrificed ten days after instillation.

[3] = molecular target: Porcine pancreatic elastase (PPE) (Sus scrofa, UniProt P00772); experiment: Spectrophotometric assay of PPE inactivation (in vitro); format: biochemical; conditions: two tenths umoles
[4] = molecular target: T1, Human leukocyte elastase (HLE) (Homo sapiens, UniProt P08246); experiment: Spectrophotometric assay of HLE inactivation (in vitro); format: biochemical
T1 construct: purchased Elastin Products, St. Louis, Mo
T1 sequence (P08246 30-267): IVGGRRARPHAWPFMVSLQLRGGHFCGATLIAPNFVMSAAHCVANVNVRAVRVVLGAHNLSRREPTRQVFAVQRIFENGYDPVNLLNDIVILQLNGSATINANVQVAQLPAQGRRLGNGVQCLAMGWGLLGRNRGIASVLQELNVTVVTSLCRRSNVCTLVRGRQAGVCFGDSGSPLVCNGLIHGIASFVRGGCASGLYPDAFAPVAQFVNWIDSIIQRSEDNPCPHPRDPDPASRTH
Protocol: The appropriate amount of inhibitor in acetonitrile was mixed with PPE in phosphate buffer solution and placed in a constant temperature bath. Aliquots were withdrawn at different time intervals and transferred to a cuvette containing 100 uL of substrate, 140 uL of acetonitrile, and 2 mL of phosphate buffer, pH 6.5. After incubating for 30 seconds, the absorbance change was monitored for two minutes at 347.5 nm. […] Controlled reactions for 100% PPE activity were run in the presence of acetonitrile. A similar procedure was followed for HLE.
The reaction of an irreversible inhibitor with PPE and HLE may be illustrated by the scheme shown below: [drawing 5] where EI is the noncovalently bound enzyme-inactivator complex and E-I is the final product with the inhibitor covalently bound to the enzyme. The kinetics data were analyzed according to known procedures. The apparent pseudo-first-order inactivation rate constants were determined from the slopes of semilogarithmic plots of enzymatic activity remaining versus time using the following equation: [formula] where Et /EO is the amount of active enzyme remaining after time "t".
The assay procedure used was the procedure identified relative to the tests above in Table I.
(kobsd) were determined by plotting in [E]t /[E]o vs time.

[5] = 1 umole, simultaneous administration, n=4
[6] = 5 umoles, 30 min, then elastase, n=3
[7] = 10 umoles, 1 hr, then elastase, n=7
[8] = 10 umoles, 2 hr, then elastase, n=6
[9] = 10 umoles, 3 hr, then elastase, n=2

Chain of Porcine pancreatic elastase (PPE) (P00772 27-266): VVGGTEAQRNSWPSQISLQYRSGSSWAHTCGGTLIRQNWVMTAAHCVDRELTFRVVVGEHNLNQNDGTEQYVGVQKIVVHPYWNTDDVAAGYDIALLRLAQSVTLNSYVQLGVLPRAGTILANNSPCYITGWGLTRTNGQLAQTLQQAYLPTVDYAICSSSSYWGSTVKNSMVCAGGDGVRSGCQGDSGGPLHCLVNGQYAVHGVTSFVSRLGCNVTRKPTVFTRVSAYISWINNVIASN

## c1c[nH]cn1 [imidazole]
Thromboxane synthetease
  thromboxane synthetase inhibition (in words): inhibitor of thromboxane synthetease

## CCC[C@H](NC(=O)n1ccnc1)C(=O)OC [Compound 5, Table I, L-N-(Imidazol-1-ylcarbonyl)norvaline Methyl Ester]
ICR mice
  Survival (in words): all animals survived
  abnormal pulmonary pathology: no animals showed abnormal pulmonary pathology
[1]; [5]
  Mouse Lung Histology, Emphysematous: 0
  Mouse Lung Histology, Normal: 4
[1]; [6]
  Mouse Lung Histology, Emphysematous: 0
  Mouse Lung Histology, Normal: 3
[1]; [7]
  Mouse Lung Histology, Emphysematous: 5
  Mouse Lung Histology, Normal: 2
[1]; [8]
  Mouse Lung Histology, Emphysematous: 6
  Mouse Lung Histology, Normal: 0
[1]; [9]
  Mouse Lung Histology, Emphysematous: 2
  Mouse Lung Histology, Normal: 0
[1]; 10 umoles, no elastase, n=7
  Mouse Lung Histology, Emphysematous: 0
  Mouse Lung Histology, Normal: 7
[1]; all mice, all doses
  tolerance of inhibitor doses: all mice treated tolerated all doses
[1]; mouse, in vivo
  effect on PPE in the animal model (in words): block the effects of PPE
  toxic side effects: devoid of any toxic side effects
[2]; IT 1 umole inhibitor, no PPE
  Emphysema: No
[2]; IT 34 ug PPE + 1 umole inhibitor
  Emphysema: No
[2]; given simultaneously with PPE
  Prevention of emphysema (in words): prevented emphysema
[3]
  0.2 umoles inhibitor relative to amount necessary to inhibit 40 ug elastase in vitro: 100 times
[4]; HLE vs PPE in vitro
  effectiveness against HLE relative to PPE: about eighty
[4]; listed as L-norvaline azolide
  Inhibition of HLE (in words): highly effective
